In patent US4868303A, “Bis-dioxopiperazine derivatives” (Zenyaku Kogyo Kabushiki Kaisha, priority 1986, dated 1989):

Legend:
[1] = system: P388 lymphocytic leukemia; assay: Increase in life span on P388 lymphocytic leukemia tumor-transplanted mouse; type: in vivo, mouse (CDF1); details: P388, ip, 24 h, daily dose 2.3 mg/kg, intraperitoneal, day 1 and 5th day after transplantation, read-out: Rate of increase in life span (ILS)
Procedure: (III) Increase in Life Span on P388 Lymphocytic Leukemia Tumor-transplantedMouse:
The treated group to which the test sample was administered consisted of seven mice, while the control group consisted of ten mice. Six weeks old male mice (CDF1, 25±2 g of body weight) were employed as host animals.
Tumor cells (1.0×10^6) of P388 lymphocytic leukemia were transplanted intraperitoneally into each mouse. The treatment was effected one day after the transplantation and on 5th day by administering prescribed dose of each test sample intraperitoneally to the mice.
Antitumor activity of the test sample was evaluated by the rate of increase in life span (ILS) which was calculated with the following formula.
T': median survival time of treated mice
C': median survival time of control mice

Acute toxicity (LD50) = details: mouse, in vivo, ip; intraperitoneal, suspended in saline with 1% HPC, observed 14 days
Procedure: The acute toxicity of the compounds of the present invention was examined by the following test.
The test group to which the compound of the present invention was administered consisted of five mice. Six weeks old male mice (ddY, 30±2 g of body weight) were employed as test animals.

V79 cells = assay: Inhibitory effect on colony formation of V79 cells in vitro; type: cell-based, Chinese hamster; details: Cricetulus griseus, 96 hours with sample, read-out: 90% inhibitory concentration (IC90)
Procedure: (II) Inhibitory effect on Colony Formation of V79 Cells in Vitro:
V79 cells established from Chinese hamster lung fibroblastoma were cultured routinely on plastic dishes (.phi. 60 mm) in RPMI 1640 medium supplemented with 10% fetal calf serum and kanamycin (0.1 mg/ml). Each confluent culture was then trypsinized by the addition of 1 ml of trypsin-EDTA solution (supplied by the firm GIBCO) for 5 minutes at 37° C. in an incubator supplied with humidified air containing 5% CO2.
Homogeneous suspension of V79 cells thus obtained was diluted to 100, 200 and 400 viable cells/ml with the medium, and 1 ml each of them was transferred to other plastic dishes (.phi. 60 mm) containing 1.85 ml of the medium, and diluted to 100, 200 and 400 viable cells/dish.
Each test sample was dissolved in DMSO at the concentration of 20 mM and diluted with the medium to the final concentration of 2×10^-3 -2×10^-10 mM.
Each test dish was kept for 24 hours at 37° C. in an incubator supplied with humidified air containing 5% CO2, and was further cultured for 96 hours after 150 μl of the sample solution was added thereto.
The cells were gently washed once with Mg- and Ca-free phosphate-buffered saline [PBS(-)] and fixed with 1 ml of 3.5% HCHO-PBS(-) solution for 2 hours, then stained with a crystal violet ethanol solution.
The 90% inhibitory concentration (IC90) was calculated by comparing the number of visible colonies on the sample dish with that on the control dish.

[2] = system: P388 lymphocytic leukemia; assay: Growth inhibition of tumor cells of P388 lymphocytic leukemia in vitro; type: cell-based, mouse (CDF1); details: Mus musculus, 48 hours at 37° C., read-out: 50% Inhibitory concentration of cell growth (IC50)
Procedure: (I) Growth Inhibition of Tumor Cells of P388 Lymphocytic Leukemia in Vitro:
Tumor cells were collected aseptically with capillary tube from ascites in CDF1 female mice transplanted intraperitoneally with 1×10^6cells of P388 lymphocytic leukemia 5 days before. Cell suspension was prepared at 5×10^4 cells/0.5 ml in a RPMI1640 medium supplemented with 10% fetal calf serum, kanamycin (0.1 mg/ml) and 2-hydroxyethyldisulfide (0.01 mM). Each test sample was dissolved or suspended in the medium at a concentration of 1×10^-1 -1×10^-5 mM.
A test tube with Molton stopper loosely involving 0.5 ml each of the cell suspension and the sample suspension was kept for 48 hours at 37° C. in an incubator supplied with air containing 5% carbon dioxide. […] The cells harvested therefrom was counted by using of a Coulter Counter and the inhibition of cell growth was calculated by the following formula:
Growth Inhibition (%)=(1-T/C)×100
T: number of cells in the culture containing test sample
C: number of cells in the culture of control

Cc1cccc(C(=O)OCN2C(=O)CN([C@@H](C)[C@@H](C)N3CC(=O)NC(=O)C3)CC2=O)c1 (relative stereo) [Sample 14, erythro-2-[4-(3-toluoyloxmethyl)-3,5-dioxopiperazin-1-yl]-3-(3,5-dioxopiperazine-1-yl)butane]
ILS at 2.3 mg/kg [1]: 199% | LD50 at 336 h (Acute toxicity (LD50)): 6.7 to 10 mg/kg | IC90 (V79 cells): 0.051 nM | IC50 [2]: 13 nM
